Assay results published in patent US20060269924A1, “Modulation of telomere-initiated cell signaling” (TRUSTEES OF BOSTON UNIVERSITY, priority 2003, published 2006).
{P} = phosphate

Key:
[1] = tested on: HT-1080 fibrosarcoma cells; experiment: BrdU incorporation assay, HT-1080 cells; format: cell-based, human
Procedure: FIG. 13a: Exposure to T-oligo increases SA-β-Gal activity. HT-1080 cells were treated for 4 days with diluent alone or 40 μM T-oligo or the complementary control oligo, then stained and assayed for SA-β-Gal activity. FIG. 13b: Quantitative analysis of SA-β-Gal positive cells. Cells expressing SA-β-Gal activity were counted and presented as percentage of total cells in the cultures. Averages and standard deviations were calculated from 3 representative fields from each of 3 independent experiments. FIG. 13c: Effect of T-oligo on cell proliferation. Cells were treated for 4 days as in FIG. 12 and assayed for DNA synthesis by BrdU incorporation. FIG. 13d: Quantitative analysis of BrdU incorporation. Dark black nuclei indicate BrdU incorporated into nuclear DNA. BrdU positive cells were calculated and presented as percentage of total cells in the cultures. Averages and standard deviations were calculated from 3 representative fields from each of 3 independent experiments. FIG. 13e: Effect of T-oligo on pRb phosphorylation. Cells were treated as in FIG. 13a and were then collected for protein analysis by western blot using 30 μg total protein and probed for pRb-ser780*, ser795* and ser807/811* (pRb phosphorylated at serine 780, serine 795 and serine 807/811 respectively). Lanes D, T and C contain protein samples from cells treated with diluent, T-oligo and complementary oligo respectively. β-actin was used as a loading control.
Parallel cultures were treated as described in FIG. 13a. Cells were then washed once with PBS and refed with complete medium without additional treatment for 24 hours or 48 hours. FIG. 14a: SA-β-Gal activity. […]
HT-1080 fibrosarcoma cells cultured on Permanox chamber slides were treated with diluent, 40 μM T-oligo or 40 μM complementary oligo for 4 days and DNA synthesis was assayed using 5-bromo-2′-deoxy-uridine (BrdU) Labeling and Detection Kit II (Roche Molecular Biochemicals, Indianapolis, Ind.) following the protocol supplied by the manufacturer. […] After incubation with anti-mouse-Ig-alkaline phosphatase, the color reaction was detected by light microscopy. […]

[2] = tested on: HT-1080 human fibrosarcoma cells; experiment: Clonogenic assay; format: cell-based; conditions: HT-1080, 40 μM for one week, then replated 2 weeks without treatment
Procedure: Cells were treated with diluent, 40 μM T-oligo or complementary oligo for one week, and then assayed. FIG. 15a: Appearance of stained dishes. FIG. 15b: Quantification of clonogenic capacity. Colonies of triplicate cultures were counted and plotted as percentage of diluent treated control.
Human fibrosarcoma cells were treated with diluent alone, 40 μM T-oligo or 40 μM complementary oligo for one week and were then trypsinized and counted. 300 cells were seeded into 60 mm culture dishes in triplicate and then incubated in complete medium for 2 weeks with medium changed twice per week. Subsequently, the cells were fixed for 5 min in 100% methanol. The methanol was then removed and the culture dishes were rinsed briefly with water. The colonies were stained for 10 min in 4% (w/v) methylene blue solution in PBS, washed once again with water, and then counted.
To determine the long-term effect of T-oligo treatment on cell growth, HT-1080 human fibrosarcoma cells were treated with either diluent alone, 40 μM T-oligo or 40 μM complementary control oligo for one week and then an equal number of cells were replated and medium was changed twice per week for 2 weeks with no further treatment, and then stained with methylene blue (FIG. 15a).

p53DD R2F fibroblasts = experiment: SA-β-Gal staining, p53DD R2F fibroblasts; format: cell-based, human; conditions: 40 μM, 1 week
Procedure: (§1) FIG. 12a: Immunoblot analysis of p53DD and cdk4^R24C expression. Cells were collected for protein analysis by western blot using 30 μg total protein and probed for total p53 and cdk4. Lanes 1, 2, 3 and 4 contain protein samples from R2F, R2F (p53DD), R2F (cdk4^R24C) and R2F (p53DD/cdk4^R24C) fibroblasts, respective. β-actin was used as a loading control. FIG. 12b: Contribution of p53 and pRb pathways to T-oligo-induced SA-β-Gal activity. R2F fibroblasts and derived transductants were treated with diluent or 40 μM T-oligo for one week and then assayed for SA-β-Gal activity. FIG. 12c: Quantitative analysis of SA-β-Gal positive cells. Cells expressing SA-β-Gal activity were counted and presented as percentage of total cells in the cultures. Averages and standard deviations were calculated from 3 representative fields from each of 3 independent experiments.
R2F newborn dermal fibroblasts and derived p53DD, […] and p53DD/cdk4^R24C transductants (a generous gift from Dr. James G. Rheinwald of Harvard Medical School) lack a functional p53 pathway, pRb pathway, and both pathways respectively.
Cells were treated once with diluent alone, 40 μM T-oligo or 40 μM complementary oligo for 1 week without re-feeding. […]
(§2) Cells were treated with either diluent or 40 μM T-oligo for 1 week and then assessed for SA-β-Gal activity. […]

R2F fibroblasts = experiment: SA-β-Gal staining, R2F fibroblasts; format: cell-based, human; conditions: 40 μM, 1 week
Procedure: as §1
Cells were treated once with diluent alone, 40 μM T-oligo or 40 μM complementary oligo for 1 week without re-feeding. Cells were then fixed for 3-5 minutes in 2% formaldehyde/0.2% glutaraldehyde and incubated at 37° C. […]
as §2

pGTTAGGGTTAG (DNA, 5' {P}, backbone not given here; listed as Homo sapiens) [Oligonucleotide 11mer-1]
DNA synthesis (BrdU) after removal of oligo ([1]; HT-1080, 4 days 40 μM, then 1 and 2 days fresh medium without oligonucleotide): did not resume DNA synthesis
BrdU incorporation (BrdU positive cells) ([1]; HT-1080 cells, 40 μM, 4 days): 7±2%
clonogenic capacity [2]: 5.7±1.9 % of diluent treated control
SA-β-Gal positive cells (p53DD R2F fibroblasts): 45±4%
SA-β-Gal positive cells (R2F fibroblasts): 65±7%
